Consider four compounds from paper PMC5031999, “Structure and catalytic mechanism of monodehydroascorbate reductase, MDHAR, from Oryza sativa L. japonica” (Scientific Reports, 2016).

Molecules are shown by their SMILES.

Common to all, as to format: binding
Experiment [1] has as its target T1, OsMDHAR (Oryza sativa, UniProt Q652L6).
T1 construct: gene MDAR3; amplified from rice cDNA; monomer by size exclusion
The experiment in a line: X-ray crystal structure, […] Å. The following applies: co-purified FAD, one per monomer; NAD-free crystal.

For experiment [2], the target named is T1, OsMDHAR. In words: isothermal titration calorimetry. The conditions noted are these: text names both NADH and NAD for the titrated ligand.
For experiment [3], the target named is T2, OsMDHAR (Oryza sativa, UniProt Q652L6, E196A).
T2 construct: gene MDAR3; amplified from rice cDNA; monomer by size exclusion
T2 sequence (Q652L6 whole entry E196A): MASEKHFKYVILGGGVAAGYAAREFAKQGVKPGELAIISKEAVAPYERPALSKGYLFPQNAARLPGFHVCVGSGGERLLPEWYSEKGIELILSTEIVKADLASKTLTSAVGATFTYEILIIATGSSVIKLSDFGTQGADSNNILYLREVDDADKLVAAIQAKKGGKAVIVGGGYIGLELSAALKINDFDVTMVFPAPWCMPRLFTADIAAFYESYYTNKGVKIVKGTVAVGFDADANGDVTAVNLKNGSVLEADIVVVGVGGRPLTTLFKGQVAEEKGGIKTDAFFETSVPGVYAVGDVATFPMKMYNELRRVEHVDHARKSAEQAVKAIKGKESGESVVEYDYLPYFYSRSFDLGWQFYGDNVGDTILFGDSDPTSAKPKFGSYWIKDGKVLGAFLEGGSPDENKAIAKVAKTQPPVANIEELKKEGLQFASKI
In words: isothermal titration calorimetry. The following applies: text names both NADH and NAD for the titrated ligand.

Experiment [4] addresses T2, OsMDHAR. The experiment in a line: X-ray crystal structure, […] Å. The conditions noted are these: crystal soaked with 50 mM NADPH until colourless; FAD bound.
For experiment [5], the target named is T3, OsMDHAR (Oryza sativa, UniProt Q652L6, Y349F).
T3 construct: gene MDAR3; amplified from rice cDNA; monomer by size exclusion
T3 sequence (Q652L6 whole entry Y349F): as the sequence (Q652L6 whole entry E196A) above, with A196E, Y349F counted along it
In words: X-ray crystal structure, […] Å. The conditions noted are these: crystal soaked with 10 mM NADH, then ISD; quaternary complex with FAD and ISD.

T1 sequence (Q652L6 whole entry): as the sequence (Q652L6 whole entry E196A) above, with A196E counted along it

In the case of `Cc1cc2nc3c(=O)[nH]c(=O)nc-3n(C[C@H](O)[C@H](O)[C@H](O)COP(=O)(O)OP(=O)(O)OC[C@H]3O[C@@H](n4cnc5c(N)ncnc54)[C@H](O)[C@@H]3O)c2cc1C` [FAD], the “X-ray crystal structure, 1.7 Å” value in experiment [1] is “All four structures contain one molecule of FAD per monomer”.
Take `NC(=O)C1=CN([C@@H]2O[C@H](COP(=O)(O)OP(=O)(O)OC[C@H]3O[C@@H](n4cnc5c(N)ncnc54)[C@H](O)[C@@H]3O)[C@@H](O)[C@H]2O)C=CC1` [NADH]: the binding affinity result was “we measured the binding affinity of wild type (WT) and E196A for NADH and NADPH” in experiment [2]; “there is no difference between WT and E196A in NAD binding affinity” in experiment [3].
For the compound `NC(=O)c1ccc[n+]([C@@H]2O[C@H](COP(=O)(O)OP(=O)(O)OC[C@H]3O[C@@H](n4cnc5c(N)ncnc54)[C@H](OP(=O)(O)O)[C@@H]3O)[C@@H](O)[C@H]2O)c1` [NADP], the “X-ray crystal structure, 1.8 Å” value in experiment [4] is “the structure of the E196A mutant-NADP complex revealed”.
In the case of `NC(=O)c1ccc[n+]([C@@H]2O[C@H](COP(=O)(O)OP(=O)(O)OC[C@H]3O[C@@H](n4cnc5c(N)ncnc54)[C@H](O)[C@@H]3O)[C@@H](O)[C@H]2O)c1` [NAD], the “X-ray crystal structure, 1.9 Å” value in experiment [5] is “We also determined quaternary complex structures with FAD, NAD, and AsA or ISD”.
